Measured values: US4346087A, “Antibacterial surface active agent containing azaalkenelactam” (priority 1979, dated 1982)
In brackets after ≈: the same amount, converted by molar mass. Where two headings read alike, the source gives them in different places.

How the values were obtained:
Type in all cases: cell-based
[1] = system: Staphylococcus aureus FDA 209P; assay: MIC against Staphylococcus aureus FDA 209P
Excerpt: (§1) Below are described the antibacterial activities of the compounds in the compositions according to this invention.
(§2) The testing method complied with the standard method of Japan Sociaty of Chemotherapy.

Escherichia coli NIHJ = assay: MIC against Escherichia coli NIHJ
Excerpt: as §1, §2

[2] = system: Desulfovibrio desulfuricans IFO 13699; assay: MIC against Desulfovibrio desulfuricans
Excerpt: as §1, §2

[3] = Staphylococcus aureus, FDA209P, 24 h
[4] = Desulfovibrio desulfuricans, IFO13699, 24 h
[5] = Escherichia coli, Table 1, azaalkenelactams, heart infusion agar, 37° C., 24 hours, read-out: MIC
[6] = Table 1, azaalkenelactams, heart infusion agar, 37° C., 24 hours
[7] = Staphylococcus aureus, FDA209P, Table 1, azaalkenelactams, heart infusion agar, 37° C., 24 hours, read-out: MIC
[8] = Table 2, derivatives having a carboxylate radical, heart infusion agar, 37° C., 24 hours
[9] = Staphylococcus aureus, FDA209P, Table 2, derivatives having a carboxylate radical, heart infusion agar, 37° C., 24 hours, read-out: MIC

Compound | MIC [1, 3] | MIC (Escherichia coli NIHJ; Escherichia coli, 24 h) | MIC [2, 4] | also measured
CCCCCCCCCCCCOCCNCCN1CCN=C(C)CC1=O [Example 6, 4-dodecoxyethylaminoethyl-7-methyl-3,6-dihydro-2H-1,4-diazepin-5-one] | 12.5 µg/mL (≈ 32.8 µM) | 50 µg/mL (≈ 131 µM) | 25 µg/mL (≈ 65.5 µM) | –
CCCCCCCCCCCCC(O)CNCCN1CCN=C(C)CC1=O (stereo not drawn) [Example 28, 4-(2-hydroxytetradecyl)aminoethyl-7-methyl-3,6-dihydro-2H-1,4-diazepin-5-one] | 25 µg/mL (≈ 65.5 µM) | 25 µg/mL (≈ 65.5 µM) | – | MIC ([2]; Desulfovibrio desulfuricans, IFO13699, Table 1, azaalkenelactams, heart infusion agar, 37° C., 24 hours, read-out: MIC): 12.5 µg/mL (≈ 32.8 µM)
CCCCCCCCCCCC(=O)OCCN1CCN=C(C)CC1=O [Example 12, 4-lauroyloxyethyl-7-methyl-3,6-dihydro-2H-1,4-diazepin-5-one] | 100 µg/mL (≈ 284 µM) | – | 12.5 µg/mL (≈ 35.5 µM) | MIC (Escherichia coli NIHJ; [5]): 1600 µg/mL (≈ 4540 µM)
CCCCCCCCCCCCCCCCCCCCCC(=O)OCCN1CCN=CCCC1=O [Example 57, 4-behenoyloxyethyl-2,3,6,7-tetrahydro-1,4-diazocin-5-one] | 100 µg/mL (≈ 203 µM) | 100 µg/mL (≈ 203 µM) | 12.5 µg/mL (≈ 25.4 µM) | –
1-coconutalkyl-4-methyl-3,6,7,8-tetrahydro-1,5-diazocin-2-one [Example 15] | – | – | – | MIC [1]: 50 µg/mL; MIC (Escherichia coli NIHJ; [6]): 1600 µg/mL; MIC [2]: 6.25 µg/mL
CCCCCCCCCCCCCCNCCN1CC[N+](C(C)C(=O)[O-])=CCC(C)C1=O (stereo not drawn) | 6.25 µg/mL (≈ 13.8 µM) | 100 µg/mL (≈ 221 µM) | 6.25 µg/mL (≈ 13.8 µM) | –
CCCCCCCCCCCCN1CCCN=C(C)CC1=O [Example 3, 1-dodecyl-4-methyl-3,6,7,8-tetrahydro-1,5-diazocin-2-one] | 50 µg/mL (≈ 162 µM) | – | 6.25 µg/mL (≈ 20.3 µM) | MIC (Escherichia coli NIHJ; [5]): 1600 µg/mL (≈ 5190 µM)
CCCCCCCCCCCCCCNCCN1CC[N+](C(C)C(=O)[O-])=CC(C)(C)C1=O (stereo not drawn) [4-tetradecylaminoethyl-6,6-dimethyl-1-azonia-4-azacyclohept-7-en-5-one-1-propionate] | 6.25 µg/mL (≈ 13.8 µM) | 100 µg/mL (≈ 221 µM) | 6.25 µg/mL (≈ 13.8 µM) | –
CCCCCCCCCCCCNC(=O)CCC [Laurylbutylamide, reference compound] | – | – | 400 µg/mL (≈ 1570 µM) | MIC [1, 7]: ≥ 10000 µg/mL; MIC (Escherichia coli NIHJ; [5]): ≥ 10000 µg/mL
CCCCCCCCCCCC(=O)NCCN1CC[N+](CC(=O)[O-])=CC(C)C1=O (stereo not drawn) [4-lauramidoethyl-6-methyl-1-azonia-4-azacyclohept-7-en-5-one-1-acetate] | 12.5 µg/mL (≈ 30.5 µM) | 50 µg/mL (≈ 122 µM) | 6.25 µg/mL (≈ 15.3 µM) | –
1-(2-hydroxy)dodecyl-3-methyl-1-aza-5-azoniacyclooct-4-en-2-one-5-acetate | – | – | – | MIC [1]: 100 µg/mL; MIC (Escherichia coli NIHJ; [8]): 1600 µg/mL; MIC [2]: 50 µg/mL
CCCCCCCCCCCCNCCNCCN1CC[N+](CC(=O)[O-])=C(C)CC1=O [4-dodecylaminoethylaminoethyl-1-azonia-4-azacyclohept-7-en-5-one-1-acetate] | 12.5 µg/mL (≈ 28.5 µM) | 100 µg/mL (≈ 228 µM) | 6.25 µg/mL (≈ 14.2 µM) | –
CCCCCCCCCCCCCCNCCN1CCC[N+](C(C)C(=O)[O-])=CC(C)(C)C1=O (stereo not drawn) [1-tetradecylaminoethyl-3,3-dimethyl-1-aza-5-azoniacyclooct-4-en-2-one-5-propionate] | 12.5 µg/mL (≈ 26.8 µM) | 100 µg/mL (≈ 215 µM) | 6.25 µg/mL (≈ 13.4 µM) | –
CCCCCCCCCCCCOCC(O)CN1CCCN=C(C)CC1=O (stereo not drawn) [Example 33, 1-docoxy(2-hydroxy)propyl-4-methyl-3,6,7,8-tetrahydro-1,5-diazocin-2-one] | 25 µg/mL (≈ 65.3 µM) | 400 µg/mL (≈ 1050 µM) | 25 µg/mL (≈ 65.3 µM) | –
CCCCCCCCc1ccc(OCCOC(C)COC(C)CN2CCN=C(C)CC2=O)cc1 (stereo not drawn) [Example 19] | 50 µg/mL (≈ 105 µM) | 400 µg/mL (≈ 843 µM) | 25 µg/mL (≈ 52.7 µM) | –
CCCCCCCCC=CCCCCCCCCN1CCN=CCCC1=O [Example 55, 4-(9-octadecenyl)-2,3,6,7-tetrahydro-1,4-diazocin-5-one] | 100 µg/mL (≈ 266 µM) | 200 µg/mL (≈ 531 µM) | 50 µg/mL (≈ 133 µM) | –
CCCCCCCCCCCCCCNCCN1CC[N+](CC(=O)[O-])=CC(C)C1=O (stereo not drawn) [4-tetradecylaminoethyl-6-methyl-1-azonia-4-azacyclohept-7-en-5-one-1-acetate] | 6.25 µg/mL (≈ 14.8 µM) | 100 µg/mL (≈ 236 µM) | 6.25 µg/mL (≈ 14.8 µM) | –
CCCCCCCCCCCCCCNCCN1CC[N+](CC(=O)[O-])=CCCC1=O [4-tetradecylaminoethyl-4-aza-1-azoniacyclooct-8-en-5-one-1-acetate] | – | 100 µg/mL (≈ 236 µM) | 6.25 µg/mL (≈ 14.8 µM) | MIC [1, 9]: 3.12 µg/mL (≈ 7.36 µM)
1-behenoyloxypropyl-3-methyl-1-aza-5-azoniacyclooct-4-en-2-one-5-acetate | – | – | – | MIC [1]: 50 µg/mL; MIC (Escherichia coli NIHJ): 100 µg/mL; MIC [2]: 25 µg/mL
CCCCCCCC(=O)NCCN1CC[N+](CC(=O)[O-])=C(C)CC1=O [4-octamidoethyl-7-methyl-1-azonia-4-azacyclohept-7-en-5-one-1-acetate] | – | 100 µg/mL (≈ 283 µM) | 50 µg/mL (≈ 141 µM) | MIC [1, 9]: 800 µg/mL (≈ 2260 µM)

Compound | MIC [1, 3] | MIC (Escherichia coli NIHJ; Escherichia coli, 24 h) | MIC [2, 4] | also measured
CCCCCCCCCCCCCCNCCN1CCC[N+](C(C)C(=O)[O-])=CC(C)C1=O (stereo not drawn) [1-tetradecylaminoethyl-3-methyl-1-aza-5-azoniacyclooct-4-en-2-one-5-propionate] | 6.25 µg/mL (≈ 13.8 µM) | 100 µg/mL (≈ 221 µM) | 6.25 µg/mL (≈ 13.8 µM) | –
CCCCCCCCCCCCCCCCCCCCCCNCCN1CCN=C(C)CC1=O [Example 22, 4-docosylaminoethyl-7-methyl-3,6-dihydro-2H-1,4-diazepin-5-one] | 25 µg/mL (≈ 52.3 µM) | – | 12.5 µg/mL (≈ 26.2 µM) | MIC (Escherichia coli NIHJ; [5]): 800 µg/mL (≈ 1670 µM)
CCCCCCCCCCCCCCCCCCNCCCN1CCCN=C(C)CC1=O [Example 37, 1-octadecylaminopropyl-4-methyl-3,6,7,8-tetrahydro-1,5-diazocin-2-one] | – | – | – | MIC [1]: 6.25 µg/mL (≈ 13.9 µM); MIC (Escherichia coli NIHJ): 25 µg/mL (≈ 55.6 µM); MIC [2]: 6.25 µg/mL (≈ 13.9 µM)
CCCCCCCCCCCCCCCCCCCCCC(=O)OCCCN1CCCN=CC(C)C1=O (stereo not drawn) [Example 51, 1-behenoyloxypropyl-3-methyl-3,6,7,8-tetrahydro-1,5-diazocin-2-one] | – | – | – | MIC [1, 6]: 25 µg/mL (≈ 48 µM); MIC (Escherichia coli NIHJ; [6]): 100 µg/mL (≈ 192 µM); MIC [2]: 12.5 µg/mL (≈ 24 µM)
CCCCCCCCCCCCC(O)CN1CCC[N+](CC(=O)[O-])=C(C)CC1=O (stereo not drawn) [1-(2-hydroxy)tetradecyl-4-methyl-1-aza-5-azoniacyclooct-4-en-2-one-5-acetate] | 25 µg/mL (≈ 60.9 µM) | 100 µg/mL (≈ 244 µM) | 6.25 µg/mL (≈ 15.2 µM) | –
CCCCCCCCCCCCCCC(O)CNCCN1CCC[N+](CC(=O)[O-])=CC(C)(C)C1=O (stereo not drawn) [1-(2-hydroxyhexadecyl)aminoethyl-3,3-dimethyl-1-aza-5-azoniacyclooct-4-en-2-one-5-acetate] | 12.5 µg/mL (≈ 25.2 µM) | 100 µg/mL (≈ 202 µM) | 12.5 µg/mL (≈ 25.2 µM) | –
1-behenoyloxypropyl-4-methyl-1-aza-5-azoniacyclooct-4-en-2-one-5-acetate | – | – | – | MIC [1]: 100 µg/mL; MIC (Escherichia coli NIHJ; [8]): 3200 µg/mL; MIC [2]: 50 µg/mL
CCCCCCCCCCCCCCC(O)CNCCN1CC[N+](CC(=O)[O-])=CC(C)(C)C1=O (stereo not drawn) [4-(2-hydroxyhexadecyl)aminoethyl-6,6-dimethyl-1-azonia-4-azacyclohept-7-en-5-one-1-acetate] | 12.5 µg/mL (≈ 25.9 µM) | 200 µg/mL (≈ 415 µM) | 6.25 µg/mL (≈ 13 µM) | –
4-behenoyloxypropyl-6-methyl-2,3,6,7-tetrahydro-1,4-diazocin-5-one [Example 68] | – | – | – | MIC [1]: 100 µg/mL; MIC (Escherichia coli NIHJ): 200 µg/mL; MIC [2]: 25 µg/mL
CCCCCCCCCCCCNCCNCCNCCCN1CCC[N+](CC(=O)[O-])=C(C)CC1=O [1-dodecylaminoethylaminoethylaminopropyl-4-methyl-1-aza-5-azoniacyclooct-4-en-2-one-5-acetate] | 12.5 µg/mL (≈ 24.5 µM) | 100 µg/mL (≈ 196 µM) | 25 µg/mL (≈ 49 µM) | –
CC1=NCCN(CCNC(=O)CCCCCCCCCCCCCCC(C)C)C(=O)C1 [Example 11, 4-isostearamidoethyl-7-methyl-3,6-dihydro-2H-1,4-diazepin-5-one] | 100 µg/mL (≈ 230 µM) | – | 6.25 µg/mL (≈ 14.3 µM) | MIC (Escherichia coli NIHJ; [5]): 1600 µg/mL (≈ 3670 µM)
CCCCCCCCCCCC(=O)OCCN1CCCN=C(C)CC1=O [Example 14, 1-lauroyloxyethyl-4-methyl-3,6,7,8-tetrahydro-1,5-diazocin-2-one] | – | – | 12.5 µg/mL (≈ 34.1 µM) | MIC [1, 7]: 100 µg/mL (≈ 273 µM); MIC (Escherichia coli NIHJ; [5]): 1600 µg/mL (≈ 4370 µM)
CCCCCCCCCCCCCCCCN1CCN=C(C)CC1=O [Example 5, 4-hexadecyl-7-methyl-3,6-dihydro-2H-1,4-diazepin-5-one] | 12.5 µg/mL (≈ 35.7 µM) | – | 6.25 µg/mL (≈ 17.8 µM) | MIC (Escherichia coli NIHJ; [5]): 3200 µg/mL (≈ 9130 µM)
4-isostearamidoethyl-7-methyl-1-azonia-4-azacyclohept-7-en-5-one-1-acetate | – | – | – | MIC [1]: 50 µg/mL; MIC (Escherichia coli NIHJ; [8]): 3200 µg/mL; MIC [2]: 25 µg/mL
CCCCCCCCCCCCNCCNCCNCCCN1CCCN=C(C)CC1=O [Example 38, 1-dodecylaminoethylaminoethylaminopropyl-4-methyl-3,6,7,8-tetrahydro-1,5-diazocin-2-one] | 12.5 µg/mL (≈ 27.7 µM) | 50 µg/mL (≈ 111 µM) | 25 µg/mL (≈ 55.3 µM) | –
CCCCCCCCOCCCN1CCN=C(C)CC1=O [Example 8, 4-octoxypropyl-7-methyl-3,6-dihydro-2H-1,4-diazepin-5-one] | 50 µg/mL (≈ 169 µM) | – | 50 µg/mL (≈ 169 µM) | MIC (Escherichia coli NIHJ; [5]): 800 µg/mL (≈ 2700 µM)
CCCCCCCCCCCCCCC(O)CNCCN1CC[N+](CC(=O)[O-])=CCCC1=O (stereo not drawn) [4-(2-hydroxyhexadecyl)aminoethyl-4-aza-1-azoniacyclooct-8-en-5-one-1-acetate] | 12.5 µg/mL (≈ 26.7 µM) | 100 µg/mL (≈ 214 µM) | 6.25 µg/mL (≈ 13.4 µM) | –
CCCCCCCCOCCCN1CCN=CC(C)(C)C1=O [Example 63, 4-octoxypropyl-6,6-dimethyl-3-hydro-2H-1,4-diazepin-5-one] | 100 µg/mL (≈ 322 µM) | 400 µg/mL (≈ 1290 µM) | 50 µg/mL (≈ 161 µM) | –
CCCCCCCCCCCCOCCNCCN1CC[N+](CC(=O)[O-])=C(C)CC1=O [4-dodecoxyaminoethyl-7-methyl-1-azonia-4-azacyclohept-7-en-5-one-1-acetate] | 25 µg/mL (≈ 56.9 µM) | 200 µg/mL (≈ 455 µM) | 25 µg/mL (≈ 56.9 µM) | –
